Measurements reported in US20160002267A1, “BENZYL-SUBSTITUTED PYRAZOLOPYRIDINES AND USE THEREOF” (BAYER PHARMA AKTIENGESELLSCHAFT, priority 2013, published 2016).

Test: Determination of pharmacokinetic parameters following intravenous and oral administration
Format: in vivo, rat
Details: rats, intravenous administration of 0.3 mg/kg and peroral administration of 1 mg/kg
Protocol: The pharmacokinetic parameters of the compounds of the formula (I) according to the invention are determined in male CD-1 mice, male Wistar rats and female beagles. Intravenous administration is via a formulation of species-specific plasma/DMSO in the case of mice and rats and via a water/PEG400/ethanol formulation in the case of dogs. For all species, oral administration of the dissolved substance via gavage is carried out based on a water/PEG400/ethanol formulation. The removal of blood from rats is simplified by inserting a silicone catheter into the right Vena jugularis externa prior to substance administration. The surgical intervention takes place at least one day prior to the experiment with isofluran anesthesia and administration of an analgetic (atropine/rimadyl (3/1) 0.1 ml s.c.). The removal of blood (generally more than 10 times) takes place in a time window which contains terminal times of at least 24 to a maximum of 72 hours after administration of the substance. The blood is removed into heparinized tubes. The blood plasma is then obtained by centrifugation; if required, it can be stored at −20° C. until further processing.
An internal standard (this can also be a chemically unrelated substance) is added to the samples of the compounds of the formula (I) according to the invention, calibration samples and qualifiers, and the protein is precipitated using excess acetonitrile. After addition of a buffer solution, which is adapted to the LC conditions, and subsequent vortexing, the mixture is centrifuged at 1000 g. The supernatant is examined by LC-MS/MS using C18-reversed-phase columns and variable mobile phase mixtures. The substances are quantified by peak heights or areas using extracted ion chromatograms of specific selected ion monitoring experiments.
The plasma concentration/time plots determined are used to calculate the pharmacokinetic parameters such as AUC (Area Under the Curve), Cmax, t1/2 (terminal half life), F (bioavailability), MRT (mean residence time) and CL (clearance), using a validated pharmacokinetic calculation program.
Since the substance quantification is performed in plasma, it is necessary to determine the blood/plasma distribution of the substance in order to be able to adjust the pharmacokinetic parameters correspondingly. For this purpose, a defined amount of substance is incubated in heparinized whole blood of the species in question in a rocking roller mixer for 20 min. After centrifugation at 1000 g, the plasma concentration is measured (by means of LC-MS/MS; see above) and determined by calculating the quotient of the Cblood/Cplasma values.

- MRT (male, Wistar, rat, plasma): 6.4 h
- half-life (male, Wistar, rat, plasma): 468 min
- AUCnorm: 0.83 kg·h/L
- CLblood: 1.42 L/h/kg
- F: 39.0%
SMILES: CC1(C(F)(F)F)C(=O)Nc2nc(-c3nn(Cc4ccccc4F)c4ncc(F)cc34)nc(NCCC(F)(F)F)c21 (single isomer, unassigned) [Example 1-1, 2-[5-Fluoro-1-(2-fluorobenzyl)-1H-pyrazolo[3,4-b]pyridin-3-yl]-5-methyl-5-(trifluoromethyl)-4-[(3,3,3-trifluoropropyl)amino]-5,7-dihydro-6H-pyrrolo[2,3-d]pyrimidin-6-one]
